Measurements reported in ChEMBL document CHEMBL5154693, “N-Methylpropargylamine-Conjugated Hydroxamic Acids as Dual Inhibitors of Monoamine Oxidase A and Histone Deacetylase for Glioma Treatment” (J Med Chem, 2022).
pEC50, pIC50: −log10 of the molar value. Calls of active or inactive are those of the source. No cut-off for these calls is given here.

Experiments:
[1] = Toxicity in C57BL6 mouse xenografted with mouse GL26 cells as assessed as last day of survival at 50 mg/kg, ip for 14 days treatment started at 5 days post-infection (Rvb=14 days); type: organism-based; settings: in vivo, 336 h, time 14 day
Mus musculus [2] = assay: In vivo inhibition of MAO-A in mouse xenografted with mouse GL26 assessed as decrease in MAO activity in tumor at 25 mg/kg, ip administered for 10 days by bioluminescence assay; type: functional, organism-based; settings: time 10.0 day
GL26 [3] = assay: Antitumor activity against mouse GL26 cells implanted in C57BL6 mouse assessed as reduction in tumor size at 50 mg/kg, ip daily measured for 10 days by bioluminescence assay; type: functional, organism-based; settings: time 10.0 day
[4] = Toxicity in mouse bearing intracranial tumor assessed as last day of survival at 25 mg/kg, ip treatment started at 7 dpi (Rvb=19 days); type: organism-based; settings: in vivo, 456 h
U-251 [5] = assay: cells; type: functional, cell-based; settings: Homo sapiens, U-251, 48 h
Description: Cytotoxicity against human TMZ-resistant U251 cells assessed as inhibition of cell growth incubated for 48 hrs by MTT assay

Mus musculus [6] = assay: In vivo inhibition of MAO-A in mouse xenografted with mouse GL26 assessed as decrease in MAO activity in brain at 25 mg/kg, ip administered for 10 days by bioluminescence assay; type: functional, organism-based; settings: time 10.0 day
[7] = Toxicity in mouse bearing intracranial tumor assessed as assessed as median survival time at 50 mg/kg, ip for 14 days treatment started at 5 days post-infection (Rvb=12.8 days); type: organism-based; settings: in vivo, 336 h, time 14 day
[8] = Toxicity in mouse bearing intracranial tumor assessed as median survival time at 50 mg/kg, ip for 10 days (Rvb= 13.8 days); type: organism-based; settings: in vivo, 240 h, time 10 day
[9] = target: Lysine-specific histone demethylase 1A (Homo sapiens, UniProt O60341); assay: Inhibition of human LSD1 assessed as demethylase activity of LSD1 using Histone H3(1-21)K4me2 peptide as substrate incubated for 30 mins followed by substrate addition by amplex red dye based HRP-coupled assay
U-251 [10] = assay: cells; type: functional, cell-based; settings: Homo sapiens, U-251, 48 h; remark: listed apart in the source
Description: Cytotoxicity against human TMZ-sensitive U251 cells assessed as inhibition of cell growth incubated for 48 hrs by MTT assay

[11] = Toxicity in mouse bearing intracranial tumor assessed as assessed as median survival time at 25 mg/kg, ip treatment started at 7 dpi (Rvb=18.25 days); type: organism-based; settings: in vivo, 438 h
[12] = (§1) In vivo inhibition of MAO-A in mouse xenografted with mouse GL26 assessed as decrease in MAO activity in tumor at 50 mg/kg by radiometric analysis; type: functional; parameters: scale not given: the % may be the effect or the level left
Histone deacetylase 2 = Histone deacetylase 2 (Homo sapiens, UniProt Q92769); assay: Inhibition of human HDAC2 (379 to 382 residues) using RHKKAc-AMC fluorogenic peptide as substrate by fluorescence assay
Sequence of Histone deacetylase 2 (Q92769 whole entry, the tested form may be a part): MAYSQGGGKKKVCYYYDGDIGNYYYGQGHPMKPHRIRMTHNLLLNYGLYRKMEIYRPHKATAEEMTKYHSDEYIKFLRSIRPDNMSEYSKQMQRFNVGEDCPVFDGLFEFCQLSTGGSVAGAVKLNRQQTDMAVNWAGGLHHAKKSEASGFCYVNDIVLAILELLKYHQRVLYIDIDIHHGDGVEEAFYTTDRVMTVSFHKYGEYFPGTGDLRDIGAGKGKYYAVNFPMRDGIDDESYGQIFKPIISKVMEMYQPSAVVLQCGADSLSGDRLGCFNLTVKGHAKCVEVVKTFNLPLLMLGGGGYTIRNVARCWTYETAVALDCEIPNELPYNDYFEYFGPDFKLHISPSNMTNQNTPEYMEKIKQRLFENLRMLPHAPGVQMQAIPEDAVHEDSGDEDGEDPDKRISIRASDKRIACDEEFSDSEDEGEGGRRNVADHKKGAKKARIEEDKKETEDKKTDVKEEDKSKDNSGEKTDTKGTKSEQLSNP

U-251 [13] = assay: Cytotoxicity against human U251 cells assessed as inhibition of cell growth incubated for 48 hrs by MTT assay; type: functional, cell-based; settings: DDE = dose-dependent effect
[14] = Toxicity in mouse bearing intracranial tumor assessed as last day of survival at 50 mg/kg,ip for 10 days (Rvb=16 days); type: organism-based; settings: in vivo, 240 h, time 10 day
[15] = target: T1, Amine oxidase [flavin-containing] A (Homo sapiens, UniProt P21397); assay: Inhibition of MAO-A (unknown origin) expressed in mouse GL26 cells using 14C 5-hydroxytryptamine as substrate pre-incubated for 20 mins followed by substrate addition measured after 20 mins by liquid scintillation spectroscopy; type: cell-based
T1 sequence (P21397 whole entry): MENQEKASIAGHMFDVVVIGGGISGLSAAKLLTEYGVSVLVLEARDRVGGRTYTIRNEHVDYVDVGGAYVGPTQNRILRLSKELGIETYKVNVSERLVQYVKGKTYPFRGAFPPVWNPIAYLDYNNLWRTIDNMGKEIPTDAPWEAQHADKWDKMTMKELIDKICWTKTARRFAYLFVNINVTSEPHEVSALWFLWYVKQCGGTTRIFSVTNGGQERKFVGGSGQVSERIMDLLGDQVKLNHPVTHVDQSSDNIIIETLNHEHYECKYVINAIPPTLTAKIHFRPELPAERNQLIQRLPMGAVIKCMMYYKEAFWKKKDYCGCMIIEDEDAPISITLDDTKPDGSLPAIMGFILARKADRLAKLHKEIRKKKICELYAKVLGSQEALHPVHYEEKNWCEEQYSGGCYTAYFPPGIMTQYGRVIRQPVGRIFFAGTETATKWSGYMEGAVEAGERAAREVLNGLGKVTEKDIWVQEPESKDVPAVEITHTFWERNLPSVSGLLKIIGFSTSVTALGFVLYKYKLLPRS

Mus musculus [16] = assay: In vivo inhibition of MAO-A in C57BL6 mouse xenografted with mouse GL26 cells as decrease in MAO activity in brain at 50 mg/kg, ip by radiometric analysis; type: functional, organism-based
Histone deacetylase 8 = target: T2, Histone deacetylase 8 (Homo sapiens, UniProt Q9BY41); assay: Inhibition of human HDAC8 (379 to 382 residues) using RHKKAcKAc-AMC fluorogenic peptide as substrate by fluorescence assay
T2 sequence (Q9BY41 whole entry): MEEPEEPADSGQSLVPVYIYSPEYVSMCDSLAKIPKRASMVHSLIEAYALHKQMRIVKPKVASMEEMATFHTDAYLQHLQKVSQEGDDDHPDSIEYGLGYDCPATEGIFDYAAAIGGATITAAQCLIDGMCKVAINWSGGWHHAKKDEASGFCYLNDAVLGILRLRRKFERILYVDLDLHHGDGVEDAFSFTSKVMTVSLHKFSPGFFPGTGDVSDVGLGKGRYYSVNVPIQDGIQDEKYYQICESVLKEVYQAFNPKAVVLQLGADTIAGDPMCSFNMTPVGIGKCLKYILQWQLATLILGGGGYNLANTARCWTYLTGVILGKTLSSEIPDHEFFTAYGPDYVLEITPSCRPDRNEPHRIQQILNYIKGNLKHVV

[17] = target: T3, Protein deacetylase HDAC6 (Homo sapiens, UniProt Q9UBN7); assay: Inhibition of human HDAC6 (379 to 382 residues) using RHKKAc fluorogenic peptide as substrate by fluorescence assay
T3 sequence (Q9UBN7 whole entry): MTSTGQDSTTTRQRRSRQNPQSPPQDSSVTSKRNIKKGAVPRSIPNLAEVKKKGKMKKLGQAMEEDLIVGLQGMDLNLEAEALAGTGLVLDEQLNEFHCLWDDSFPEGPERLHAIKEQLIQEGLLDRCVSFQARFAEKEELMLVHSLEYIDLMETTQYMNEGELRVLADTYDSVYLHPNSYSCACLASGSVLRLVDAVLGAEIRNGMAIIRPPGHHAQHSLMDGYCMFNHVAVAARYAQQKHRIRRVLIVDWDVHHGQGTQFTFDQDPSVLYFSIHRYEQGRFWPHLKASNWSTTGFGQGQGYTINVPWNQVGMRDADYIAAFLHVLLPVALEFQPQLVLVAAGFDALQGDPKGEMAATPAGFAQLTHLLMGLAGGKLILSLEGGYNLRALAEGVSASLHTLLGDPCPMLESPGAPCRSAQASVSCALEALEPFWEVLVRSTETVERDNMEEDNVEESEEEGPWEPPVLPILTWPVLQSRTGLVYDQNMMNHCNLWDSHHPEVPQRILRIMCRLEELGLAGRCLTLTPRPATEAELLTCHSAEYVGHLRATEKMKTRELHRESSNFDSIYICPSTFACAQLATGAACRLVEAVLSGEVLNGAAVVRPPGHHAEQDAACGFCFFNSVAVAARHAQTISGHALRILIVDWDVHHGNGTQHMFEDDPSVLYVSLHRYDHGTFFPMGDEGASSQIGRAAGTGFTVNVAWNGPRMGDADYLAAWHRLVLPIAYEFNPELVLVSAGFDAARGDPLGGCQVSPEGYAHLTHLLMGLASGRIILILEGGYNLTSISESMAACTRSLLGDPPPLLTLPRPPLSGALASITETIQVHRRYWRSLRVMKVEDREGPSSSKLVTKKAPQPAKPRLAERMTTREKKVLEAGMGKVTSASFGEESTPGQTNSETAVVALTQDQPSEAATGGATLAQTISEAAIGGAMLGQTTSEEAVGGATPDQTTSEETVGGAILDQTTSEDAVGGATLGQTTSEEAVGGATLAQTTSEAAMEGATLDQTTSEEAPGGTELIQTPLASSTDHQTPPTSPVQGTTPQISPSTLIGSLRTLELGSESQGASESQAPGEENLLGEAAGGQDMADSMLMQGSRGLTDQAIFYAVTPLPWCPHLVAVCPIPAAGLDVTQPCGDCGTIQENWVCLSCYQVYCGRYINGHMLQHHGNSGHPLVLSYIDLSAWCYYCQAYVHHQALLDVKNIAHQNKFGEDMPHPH

[18] = Cytotoxicity against mouse GL26 cells assessed as inhibition of cell growth incubated for 48 hrs by MTT assay; type: functional, cell-based; settings: GL26, 48 h
Histone deacetylase 1 = Histone deacetylase 1 (Homo sapiens, UniProt Q13547); assay: Inhibition of human HDAC1 (379 to 382 residues) using RHKKAc-AMC fluorogenic peptide as substrate by fluorescence assay
Sequence of Histone deacetylase 1 (Q13547 whole entry, the tested form may be a part): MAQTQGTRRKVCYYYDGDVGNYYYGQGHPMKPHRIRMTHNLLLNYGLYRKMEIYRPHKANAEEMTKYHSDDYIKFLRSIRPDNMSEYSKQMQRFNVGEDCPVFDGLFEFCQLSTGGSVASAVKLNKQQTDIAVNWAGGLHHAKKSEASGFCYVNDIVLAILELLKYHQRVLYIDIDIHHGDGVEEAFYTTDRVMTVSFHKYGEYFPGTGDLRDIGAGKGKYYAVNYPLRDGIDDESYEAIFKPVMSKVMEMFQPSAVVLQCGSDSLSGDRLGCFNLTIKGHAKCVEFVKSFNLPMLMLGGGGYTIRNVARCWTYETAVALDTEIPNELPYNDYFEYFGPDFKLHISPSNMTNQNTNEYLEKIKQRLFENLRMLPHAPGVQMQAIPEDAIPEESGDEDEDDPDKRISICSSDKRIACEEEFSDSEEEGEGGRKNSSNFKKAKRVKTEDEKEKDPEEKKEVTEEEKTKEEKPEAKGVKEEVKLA

[19] = Toxicity in mouse bearing intracranial tumor assessed as last day of survival at 50 mg/kg, ip in presence of clorgyline for 10 days (Rvb=16 days); type: organism-based; settings: in vivo, 240 h, time 10 day
[20] = Toxicity in mouse bearing intracranial tumor assessed as last day of survival at 25 mg/kg, ip in presence of clorgyline for 10 days (Rvb=16 days); type: organism-based; settings: in vivo, 240 h, time 10 day
[21] = Toxicity in mouse bearing intracranial tumor assessed as median survival time at 25 mg/kg, ip in presence of clorgyline for 10 days (Rvb=13.8 days); type: organism-based; settings: in vivo, 240 h, time 10 day
[22] = Toxicity in mouse bearing intracranial tumor assessed as median survival time at 50 mg/kg, ip in presence of clorgyline for 10 days (Rvb=13.8 days); type: organism-based; settings: in vivo, 240 h, time 10 day
GL26 [23] = assay: Induction of apoptosis in mouse GL26 cells assessed as proteolytic cleavage of PARP1 incubated for 48 hrs by Western blot analysis; type: functional, cell-based; settings: dose 1.25-5 µM, DDE = dose-dependent effect
Mus musculus [24] = assay: as §1; type: functional

pIC50 (U-251 [5]) | pIC50 (U-251 [10]) | pIC50 (Histone deacetylase 2) | pIC50 [15] | pIC50 (Histone deacetylase 8) | pIC50 [17] | pIC50 (Histone deacetylase 1) | Structure (SMILES) | Survival [8] | pIC50 [18] | also measured
5.32 | 4.94 | 5.38 | 7.70 | 5.95 | 7.10 | 5.64 | C#CCN(C)CCCOc1cc(NC(=O)CCCCCCCC(=O)NO)ccc1Cl |  | 4.71 | 
5.06 | 4.30 | 5.18 | 6.37 | 5.75 | 7.22 | 5.48 | C#CCN(C)CCCOc1cc(NC(=O)CCCCCCC(=O)NO)c(Cl)cc1Cl |  | 4.13 | 
6.22 | 6.92 | 6.82 | 5.49 | 7.30 | 8.00 | 7.52 | C#CCN(C)CCCOc1cc(NC(=O)CCCCCCC(=O)NO)ccc1Cl |  | 5.94 | 

Continued, molecule first:

Structure (SMILES) | pIC50 (U-251 [5]) | pIC50 (U-251 [10]) | pIC50 (Histone deacetylase 2) | pIC50 [15] | pIC50 (Histone deacetylase 8) | pIC50 [17] | pIC50 (Histone deacetylase 1) | Survival [8] | pIC50 [18] | also measured
C#CCN(C)CCCOc1cc(NCc2ccc(C(=O)NO)cc2)ccc1Cl | 5.15 | 5.00 | 5.32 | 9.40 | 5.93 | 8.00 | 5.60 | 16.8 days | 5.62 | Survival [1]: 18 days; Activity (Mus musculus [2]): Active; Activity (GL26 [3]): Active; Survival [4]: 23 days; Activity (Mus musculus [6]): Active; MST [7]: 14.25 days; pEC50 [9]: 5.22; MST [11]: 19.75 days; Activity [12]: 90%; Activity (U-251 [13]): Dde; Survival [14]: 20 days; Activity (Mus musculus [16]): Active
O=C(CCCCCCC(=O)Nc1ccccc1)NO [VORINOSTAT] |  |  |  |  |  |  |  | 13.8 days | 5.66 | Survival [19]: 18 days; Survival [20]: 14 days; MST [21]: 13.8 days; MST [22]: 14.4 days; Activity (GL26 [23]): Dde
C#CCN(C)CCCOc1cc(NC(=O)CCCCCCCCC(=O)NO)ccc1Cl | 4.79 | 4.48 | 5.44 | > 10.00 | 5.61 | 6.80 | 5.85 | 14.8 days | 5.98 | Survival [1]: 16 days; Activity (Mus musculus [2]): Active; Activity (GL26 [3]): Active; Survival [4]: 21 days; Activity (Mus musculus [6]): Active; MST [7]: 14.5 days; MST [11]: 18 days; Activity (Mus musculus [24]): Active; Activity (Mus musculus [16]): Active
C#CCN(C)CCCOc1cccc(NC(=O)CCCCCCC(=O)NO)c1Cl | 5.39 | 5.24 | 5.49 | 4.63 | 5.83 | 7.05 | 6.05 |  | 5.76 | 
